Measured values as given in US10294202B2, “Pyrrolidinones as herbicides” (FMC Corporation, priority 2013, dated 2019).

Assays:
barnyardgrass [1] = assay: Test A pre-/postemergence herbicide test; assay type: in vivo, Echinochloa crus-galli
Outline: (§1)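 Greenhouse pot test with pre- and postemergence application of surfactant-containing solvent formulations. Postemergence plants were 2–10 cm, one- to two-leaf stage. Response scored visually after ~10 days, 0 (no effect) to 100 (complete control).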

kochia = assay: Test A pre-/postemergence herbicide test; assay type: in vivo, Kochia scoparia
Outline: as §1

ragweed = assay: Test A pre-/postemergence herbicide test; assay type: in vivo, Ambrosia elatior
Outline: as §1

ryegrass, Italian = assay: Test A pre-/postemergence herbicide test; assay type: in vivo, Lolium multiflorum
Outline: as §1

giant foxtail = assay: Test A pre-/postemergence herbicide test; assay type: in vivo, Setaria faberii
Outline: as §1

pigweed = assay: Test A pre-/postemergence herbicide test; assay type: in vivo, Amaranthus retroflexus
Outline: as §1

wheat = assay: Test A pre-/postemergence herbicide test; assay type: in vivo, Triticum aestivum; conditions: Postemergence
Outline: as §1

corn = assay: Test A pre-/postemergence herbicide test; assay type: in vivo, Zea mays; conditions: Postemergence
Outline: as §1

blackgrass = assay: Test A postemergence herbicide test; assay type: in vivo, Alopecurus myosuroides
Outline: (§2)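 Potted in loam soil/sand blend; postemergence application at 1–2 leaf stage (2–10 cm). Greenhouse ~10 d. Visual injury vs untreated, 0–100 scale; 100 = complete control.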

galium = assay: Test A postemergence herbicide test; assay type: in vivo, Galium aparine
Outline: as §2

rice = assay: Test B flooded paddy test; assay type: in vivo, Oryza sativa; conditions: Flood, scale of 0 to 100 where 0 is no effect and 100 is complete control
Outline: (§3)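 Visual ratings from 0, meaning no effect, up to 100, meaning complete control, were made by comparison with untreated controls 13 to 15 days after treatment. Test compounds went straight into floodwater standing 3 cm over the soil of pots holding 2-leaf seedlings.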

sedge, umbrella = assay: Test B flooded paddy test; assay type: in vivo, Cyperus difformis; conditions: Flood, scale of 0 to 100 where 0 is no effect and 100 is complete control
Outline: as §3

ducksalad = assay: Test B flooded paddy test; assay type: in vivo, Heteranthera limosa; conditions: Flood, scale of 0 to 100 where 0 is no effect and 100 is complete control
Outline: as §3

barnyardgrass [2] = assay: Test B flooded paddy test; assay type: in vivo, Echinochloa crus-galli; conditions: Flood, scale of 0 to 100 where 0 is no effect and 100 is complete control
Outline: as §3

[3] = Postemergence, 125 g ai/ha, visual rating on 0 to 100 scale (0 no effect, 100 complete control), approx. 10 days
[4] = Postemergence, 500 g ai/ha, 0 to 100 scale (0 no effect, 100 complete control)
[5] = Preemergence, 125 g ai/ha, 0 to 100 scale where 0 is no effect and 100 is complete control
[6] = Preemergence, 500 g ai/ha, visual rating on 0 to 100 scale (0 no effect, 100 complete control)
[7] = 125 g ai/ha, visual rating on 0 to 100 scale (0 no effect, 100 complete control), approx. 10 days
[8] = 500 g ai/ha, 0 to 100 scale (0 no effect, 100 complete control)
[9] = 125 g ai/ha, visual rating, 0 to 100 scale, 0 no effect, 100 complete control, approximately 10 days, preemergence
[10] = Postemergence, 125 g ai/ha, 0 to 100 scale, 0 is no effect, 100 is complete control
[11] = preemergence, 500 g ai/ha, 0 to 100 scale, 0 is no effect and 100 is complete control
[12] = 125 g ai/ha, 0 to 100 scale, 0 is no effect, 100 is complete control

CCN1CC(c2ccc(C(F)(F)F)cc2)C(C(=O)Nc2cccc(F)c2F)C1=O (stereo not drawn) [Compound 336]
0: Plant response rating, Kochia (kochia; [3]) | Plant response rating, Kochia (kochia; [4]) | Plant response rating, Kochia (kochia; [5]) | Plant response rating, Ragweed (ragweed; [3]) | Plant response rating, Ragweed (ragweed; [4]) | Plant response rating, Ragweed (ragweed; [5]) | Ragweed plant response rating (ragweed; [6]) | Plant response rating, Ryegrass, Italian (ryegrass, Italian; [3]) | Plant response rating, Ryegrass, Italian (ryegrass, Italian; [4]) | Plant response rating, Ryegrass, Italian (ryegrass, Italian; [5]) | Plant response rating, Pigweed (pigweed; [3]) | Plant response rating, Pigweed (pigweed; [4]) | Plant response rating, Pigweed (pigweed; [5]) | Plant response rating, Wheat (wheat; [7]) | Plant response rating, Wheat (wheat; [8]) | Plant response rating, Corn (corn; [7]) | Plant response rating, Corn (corn; [8]) | Plant response rating, Blackgrass (blackgrass; [7]) | Plant response rating, Blackgrass (blackgrass; [8]) | Plant response rating, Galium (galium; [7]) | Plant response rating, Galium (galium; [8]) | Plant response rating, Rice (rice; 500 g ai/ha) | Plant response rating, Sedge, Umbrella (sedge, umbrella; 500 g ai/ha)
70: Plant response rating, Foxtail, Giant (giant foxtail; [3]) | Plant response rating, Foxtail, Giant (giant foxtail; [4])
50: Plant response rating, Barnyardgrass (barnyardgrass [1]; [5]) | Plant response rating, Barnyardgrass (barnyardgrass [2]; 500 g ai/ha)
30: Plant response rating, Barnyardgrass (barnyardgrass [1]; [3])
80: Plant response rating, Foxtail, Giant (giant foxtail; [5])
90: Foxtail, Giant plant response rating (giant foxtail; [6])
20: Ryegrass, Italian plant response rating (ryegrass, Italian; [6]) | Pigweed plant response rating (pigweed; [6])
60: Plant response rating, Barnyardgrass (barnyardgrass [1]; [4]) | Barnyardgrass plant response rating (barnyardgrass [1]; [6]) | Kochia plant response rating (kochia; [6]) | Plant response rating, Ducksalad (ducksalad; 500 g ai/ha)

O=C1NCC(c2cccc(S(F)(F)(F)(F)F)c2)C1C(=O)Nc1ccccc1F (racemic) [Compound 213]
90: Foxtail, Giant plant response rating (0 to 100 scale, 0 is no effect, 100 is complete control) (giant foxtail; Postemergence, 500 g ai/ha) | Plant response rating, Foxtail, Giant (giant foxtail; [11])
0: Plant response rating, Kochia (kochia; [9]) | Plant response rating, Kochia (kochia; [10]) | Kochia plant response rating (0 to 100 scale, 0 is no effect, 100 is complete control) (kochia; Postemergence, 500 g ai/ha) | Plant response rating, Kochia (kochia; [11]) | Plant response rating, Ragweed (ragweed; [9]) | Plant response rating, Ragweed (ragweed; [10]) | Plant response rating, Ragweed (ragweed; [11]) | Plant response rating, Ryegrass, Italian (ryegrass, Italian; [9]) | Plant response rating, Pigweed (pigweed; [9]) | Plant response rating, Pigweed (pigweed; [10]) | Pigweed plant response rating (0 to 100 scale, 0 is no effect, 100 is complete control) (pigweed; Postemergence, 500 g ai/ha) | Plant response rating, Pigweed (pigweed; [11]) | Plant response rating, Wheat (wheat; [12]) | Plant response rating, Corn (corn; [12]) | Plant response rating, Galium (galium; [12]) | Galium plant response rating (0 to 100 scale, 0 is no effect, 100 is complete control) (galium; 500 g ai/ha) | Plant response rating, Rice (rice; 1000 g ai/ha) | Plant response rating, Sedge, Umbrella (sedge, umbrella; 1000 g ai/ha)
40: Plant response rating, Ryegrass, Italian (ryegrass, Italian; [10]) | Plant response rating, Ryegrass, Italian (ryegrass, Italian; [11])
30: Ragweed plant response rating (0 to 100 scale, 0 is no effect, 100 is complete control) (ragweed; Postemergence, 500 g ai/ha)
80: Plant response rating, Barnyardgrass (barnyardgrass [1]; [11]) | Plant response rating, Foxtail, Giant (giant foxtail; [9]) | Plant response rating, Foxtail, Giant (giant foxtail; [10])
50: Plant response rating, Barnyardgrass (barnyardgrass [1]; [9]) | Ryegrass, Italian plant response rating (0 to 100 scale, 0 is no effect, 100 is complete control) (ryegrass, Italian; Postemergence, 500 g ai/ha) | Wheat plant response rating (0 to 100 scale, 0 is no effect, 100 is complete control) (wheat; 500 g ai/ha) | Corn plant response rating (0 to 100 scale, 0 is no effect, 100 is complete control) (corn; 500 g ai/ha) | Plant response rating, Blackgrass (blackgrass; [12])
60: Plant response rating, Barnyardgrass (barnyardgrass [1]; [10]) | Blackgrass plant response rating (0 to 100 scale, 0 is no effect, 100 is complete control) (blackgrass; 500 g ai/ha) | Plant response rating, Barnyardgrass (barnyardgrass [2]; 1000 g ai/ha)
85: Plant response rating, Ducksalad (ducksalad; 1000 g ai/ha)
70: Barnyardgrass plant response rating (0 to 100 scale, 0 is no effect, 100 is complete control) (barnyardgrass [1]; Postemergence, 500 g ai/ha)

O=C1NCC(c2cnn(CC(F)(F)F)c2)C1C(=O)Nc1ccccc1C(F)(F)F (stereo not drawn) [Compound 300]
0: Plant response rating, Barnyardgrass (barnyardgrass [1]; [3]) | Plant response rating, Barnyardgrass (barnyardgrass [1]; [4]) | Plant response rating, Barnyardgrass (barnyardgrass [1]; [5]) | Plant response rating, Barnyardgrass (barnyardgrass [1]; [11]) | Plant response rating, Kochia (kochia; [3]) | Plant response rating, Kochia (kochia; [4]) | Plant response rating, Kochia (kochia; [5]) | Plant response rating, Kochia (kochia; [11]) | Plant response rating, Ragweed (ragweed; [3]) | Plant response rating, Ragweed (ragweed; [4]) | Plant response rating, Ragweed (ragweed; [5]) | Plant response rating, Ragweed (ragweed; [11]) | Plant response rating, Ryegrass, Italian (ryegrass, Italian; [3]) | Plant response rating, Ryegrass, Italian (ryegrass, Italian; [4]) | Plant response rating, Ryegrass, Italian (ryegrass, Italian; [5]) | Ryegrass, Italian plant response rating (ryegrass, Italian; [6]) | Plant response rating, Foxtail, Giant (giant foxtail; [3]) | Plant response rating, Foxtail, Giant (giant foxtail; [4]) | Plant response rating, Foxtail, Giant (giant foxtail; [5]) | Plant response rating, Foxtail, Giant (giant foxtail; [11]) | Plant response rating, Pigweed (pigweed; [3]) | Plant response rating, Pigweed (pigweed; [4]) | Plant response rating, Pigweed (pigweed; [5]) | Plant response rating, Pigweed (pigweed; [11]) | Plant response rating, Wheat (wheat; [7]) | Plant response rating, Wheat (wheat; [8]) | Plant response rating, Corn (corn; [7]) | Plant response rating, Corn (corn; [8]) | Plant response rating, Blackgrass (blackgrass; [7]) | Plant response rating, Blackgrass (blackgrass; [8]) | Plant response rating, Galium (galium; [7]) | Plant response rating, Galium (galium; [8]) | Plant response rating, Rice (rice; 500 g ai/ha) | Plant response rating, Sedge, Umbrella (sedge, umbrella; 500 g ai/ha) | Plant response rating, Ducksalad (ducksalad; 500 g ai/ha) | Plant response rating, Barnyardgrass (barnyardgrass [2]; 500 g ai/ha)

CSc1cccc(C2CNC(=O)C2C(=O)Nc2ccccc2F)c1 (stereo not drawn) [Compound 287]
80: Plant response rating, Barnyardgrass (barnyardgrass [1]; [4]) | Plant response rating, Barnyardgrass (barnyardgrass [1]; [11]) | Plant response rating, Foxtail, Giant (giant foxtail; [11])
50: Plant response rating, Barnyardgrass (barnyardgrass [1]; [3]) | Plant response rating, Barnyardgrass (barnyardgrass [1]; [5]) | Plant response rating, Foxtail, Giant (giant foxtail; [5])
0: Plant response rating, Kochia (kochia; [3]) | Plant response rating, Kochia (kochia; [4]) | Plant response rating, Kochia (kochia; [5]) | Plant response rating, Kochia (kochia; [11]) | Plant response rating, Ragweed (ragweed; [3]) | Plant response rating, Ragweed (ragweed; [4]) | Plant response rating, Ragweed (ragweed; [5]) | Plant response rating, Ragweed (ragweed; [11]) | Plant response rating, Ryegrass, Italian (ryegrass, Italian; [3]) | Plant response rating, Ryegrass, Italian (ryegrass, Italian; [4]) | Plant response rating, Ryegrass, Italian (ryegrass, Italian; [5]) | Ryegrass, Italian plant response rating (ryegrass, Italian; [6]) | Plant response rating, Foxtail, Giant (giant foxtail; [3]) | Plant response rating, Foxtail, Giant (giant foxtail; [4]) | Plant response rating, Pigweed (pigweed; [3]) | Plant response rating, Pigweed (pigweed; [4]) | Plant response rating, Pigweed (pigweed; [5]) | Plant response rating, Pigweed (pigweed; [11]) | Plant response rating, Wheat (wheat; [7]) | Plant response rating, Wheat (wheat; [8]) | Plant response rating, Corn (corn; [7]) | Plant response rating, Corn (corn; [8]) | Plant response rating, Blackgrass (blackgrass; [7]) | Plant response rating, Blackgrass (blackgrass; [8]) | Plant response rating, Galium (galium; [7]) | Plant response rating, Galium (galium; [8]) | Plant response rating, Rice (rice; 500 g ai/ha) | Plant response rating, Sedge, Umbrella (sedge, umbrella; 500 g ai/ha)
30: Plant response rating, Barnyardgrass (barnyardgrass [2]; 500 g ai/ha)
75: Plant response rating, Ducksalad (ducksalad; 500 g ai/ha)
